Measured values taken from ChEMBL document CHEMBL4371054, “Dual inhibition of Kif15 by oxindole and quinazolinedione chemical probes” (Bioorg Med Chem Lett, 2019).
Calls of active or inactive are those of the source. The rule behind the calls is not given here.

What was measured:
[1] = target: T1, Kinesin-like protein KIF15 (Homo sapiens) (UniProt Q9NS87); assay: Inhibition of Kif15 in K51-resistant human KIRC1 cells assessed as increase in cells with monopolar spindles after 24 hrs by Hoechst 33342 staining based immunofluorescence microscopic analysis
T1 sequence (whole entry): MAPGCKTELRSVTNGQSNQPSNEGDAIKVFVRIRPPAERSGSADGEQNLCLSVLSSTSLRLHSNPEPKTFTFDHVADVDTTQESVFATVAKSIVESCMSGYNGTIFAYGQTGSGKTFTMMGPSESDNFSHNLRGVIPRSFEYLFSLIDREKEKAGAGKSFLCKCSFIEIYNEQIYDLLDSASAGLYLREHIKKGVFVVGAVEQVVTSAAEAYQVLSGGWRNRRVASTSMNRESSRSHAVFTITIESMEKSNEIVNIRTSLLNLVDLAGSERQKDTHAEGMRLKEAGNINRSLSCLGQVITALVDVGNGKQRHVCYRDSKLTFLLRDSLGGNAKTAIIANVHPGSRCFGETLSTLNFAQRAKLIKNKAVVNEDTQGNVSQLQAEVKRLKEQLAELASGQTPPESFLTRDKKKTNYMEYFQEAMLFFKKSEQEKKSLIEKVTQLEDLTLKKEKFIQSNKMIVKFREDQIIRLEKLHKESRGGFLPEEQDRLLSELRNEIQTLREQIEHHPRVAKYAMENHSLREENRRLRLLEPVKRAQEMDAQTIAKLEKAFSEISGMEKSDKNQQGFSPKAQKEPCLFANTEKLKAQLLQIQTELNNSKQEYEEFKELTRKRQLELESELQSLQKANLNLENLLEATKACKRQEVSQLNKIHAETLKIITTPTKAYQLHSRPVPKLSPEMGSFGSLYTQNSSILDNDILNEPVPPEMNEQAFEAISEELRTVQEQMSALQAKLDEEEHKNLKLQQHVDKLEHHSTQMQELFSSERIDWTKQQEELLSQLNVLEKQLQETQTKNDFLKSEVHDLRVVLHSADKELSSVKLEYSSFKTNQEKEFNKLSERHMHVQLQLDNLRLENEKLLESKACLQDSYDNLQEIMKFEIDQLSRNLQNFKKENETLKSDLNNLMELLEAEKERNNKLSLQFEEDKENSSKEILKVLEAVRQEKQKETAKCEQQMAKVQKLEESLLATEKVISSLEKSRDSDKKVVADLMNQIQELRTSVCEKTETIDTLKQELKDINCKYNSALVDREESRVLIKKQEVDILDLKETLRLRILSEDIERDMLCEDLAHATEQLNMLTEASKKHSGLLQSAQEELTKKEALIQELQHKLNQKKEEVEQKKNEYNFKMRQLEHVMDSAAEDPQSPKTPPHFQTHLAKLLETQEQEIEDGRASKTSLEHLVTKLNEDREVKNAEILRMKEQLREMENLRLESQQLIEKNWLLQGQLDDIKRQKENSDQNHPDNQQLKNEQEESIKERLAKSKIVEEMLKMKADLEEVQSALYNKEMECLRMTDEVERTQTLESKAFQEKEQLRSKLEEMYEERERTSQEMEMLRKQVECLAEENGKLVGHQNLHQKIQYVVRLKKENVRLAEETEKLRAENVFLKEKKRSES

[2] = target: T2, Kinesin-like protein KIF15 (Homo sapiens, UniProt Q9NS87); assay: Inhibition of recombinant His6-tagged Kif15 (N700 residues) (unknown origin) expressed in HeLa cells assessed as reduction in Alexa-594 labelled microtubule gliding measured every 2 secs for 20 secs by epifluorescence microscopic analysis; format: cell-based
T2 sequence (Q9NS87 whole entry): T1 sequence (whole entry)

[3] = target: T1, Kinesin-like protein KIF15 (Homo sapiens); assay: Inhibition of Kif15 in K51-resistant human KIRC1 cells assessed as cells with monopolar spindles at 25 uM after 24 hrs by Hoechst 33342 staining based immunofluorescence microscopic analysis (reference value: 43 to 49%); set-up: scale not given: the % may be the effect or the level left
[4] = target: T1, Kinesin-like protein KIF15 (Homo sapiens); assay: ATP non-competitive inhibition of recombinant His6-tagged Kif15 ATPase activity (N700 residues) (unknown origin) expressed in HeLa cells at 0.5 to 2 uM using varying levels of microtubule as substrate preincubated for 30 mins followed by ATP addition by double reciprocal Lineweaver-Burk plot analysis; format: cell-based
[5] = target: T1, Kinesin-like protein KIF15 (Homo sapiens); assay: Inhibition of Kif15 in TP53-deficient human RPE1 cells assessed as reduction in Kif15 level at 25 uM after 24 hrs by Western blot analysis relative to control
[6] = target: T3, Kinesin-like protein KIF11 (Homo sapiens) (UniProt P52732); assay: Inhibition of Eg5 (unknown origin) assessed as reduction in Alexa-594 labelled microtubule gliding at 30 uM measured every 2 secs for 20 secs by epifluorescence microscopic analysis relative to control
T3 sequence (whole entry): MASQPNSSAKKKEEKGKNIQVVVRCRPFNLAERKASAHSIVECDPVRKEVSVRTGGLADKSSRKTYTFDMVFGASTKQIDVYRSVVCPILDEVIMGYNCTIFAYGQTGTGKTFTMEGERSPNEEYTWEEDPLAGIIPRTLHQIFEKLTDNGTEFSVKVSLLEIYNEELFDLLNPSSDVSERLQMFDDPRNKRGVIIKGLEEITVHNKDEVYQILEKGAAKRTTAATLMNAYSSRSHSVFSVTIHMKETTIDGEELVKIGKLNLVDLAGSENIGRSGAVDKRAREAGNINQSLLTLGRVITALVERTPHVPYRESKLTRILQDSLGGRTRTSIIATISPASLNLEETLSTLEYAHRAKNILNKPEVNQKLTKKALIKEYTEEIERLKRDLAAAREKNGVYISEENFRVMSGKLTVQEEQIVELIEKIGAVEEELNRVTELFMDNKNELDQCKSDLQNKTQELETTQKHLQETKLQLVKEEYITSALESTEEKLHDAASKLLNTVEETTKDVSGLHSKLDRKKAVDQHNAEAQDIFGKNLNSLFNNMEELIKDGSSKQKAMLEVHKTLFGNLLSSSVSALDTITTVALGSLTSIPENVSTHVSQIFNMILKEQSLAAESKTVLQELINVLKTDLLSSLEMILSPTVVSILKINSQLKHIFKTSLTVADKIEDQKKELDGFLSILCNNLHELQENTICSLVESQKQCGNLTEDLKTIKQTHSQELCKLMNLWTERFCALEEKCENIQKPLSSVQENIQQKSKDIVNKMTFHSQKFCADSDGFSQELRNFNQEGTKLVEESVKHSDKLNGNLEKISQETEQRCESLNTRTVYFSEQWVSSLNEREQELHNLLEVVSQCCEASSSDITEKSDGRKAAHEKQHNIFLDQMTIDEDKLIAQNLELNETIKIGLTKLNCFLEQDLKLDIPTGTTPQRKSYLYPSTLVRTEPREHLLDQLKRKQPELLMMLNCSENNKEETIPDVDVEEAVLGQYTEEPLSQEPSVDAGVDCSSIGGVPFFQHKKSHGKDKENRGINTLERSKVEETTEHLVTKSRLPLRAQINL

[7] = target: T2, Kinesin-like protein KIF15; assay: Inhibition of recombinant His6-tagged Kif15 ATPase activity (N420 residues) (unknown origin) expressed in HeLa cells using microtubule as substrate preincubated for 15 mins followed by ATP addition and measured after 20 mins by ADP-Glo luminescence assay

O=C1Nc2ccc(C(=O)c3ccco3)cc2/C1=C/c1cc(Cl)c(O)c(Cl)c1
inhibition [1]: Dose-dependent effect
IC50 [2]: 750 nM
Activity [3]: 95%
inhibition [4]: Active
inhibition [5]: 60%
inhibition [6]: 19.8%
IC50 [7]: 820 nM
